Structures can show the parent of a compound that is named as a salt.
Key:
[1] = molecular target: T1, human chemokine receptor CCR3 (Homo sapiens, UniProt P51677); experiment: CCR3 receptor binding assay (SPA, 125I-eotaxin-1, membranes of hCCR3 transfected K562 cells); conditions: CCR3-Receptor Binding Protocol, radioligand 125I-eotaxin-1; read-out: Affinity (Ki-value)
T1 construct: expressed in transfected cells; host or cells: K562 cells (membrane preparation)
T1 sequence (P51677 1-355): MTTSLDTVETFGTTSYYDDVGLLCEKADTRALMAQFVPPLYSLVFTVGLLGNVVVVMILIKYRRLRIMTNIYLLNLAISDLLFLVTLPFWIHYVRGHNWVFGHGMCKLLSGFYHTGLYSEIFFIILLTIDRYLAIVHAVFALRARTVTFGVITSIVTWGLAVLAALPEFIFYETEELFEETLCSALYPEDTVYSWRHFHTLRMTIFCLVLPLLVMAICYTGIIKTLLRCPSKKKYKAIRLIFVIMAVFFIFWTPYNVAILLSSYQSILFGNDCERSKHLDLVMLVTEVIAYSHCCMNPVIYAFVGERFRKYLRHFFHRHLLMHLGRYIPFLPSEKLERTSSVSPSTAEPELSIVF
From the text: Cell lines for expressing the receptor of interest include those naturally expressing the chemokine receptor, such as EOL-3 or THP-1, those induced to express the chemokine receptor by the addition of chemical or protein agents, such as HL-60 or AML14.3D10 cells treated with, for example, butyric acid with interleukin-5 present, or a cell engineered to express a recombinant chemokine receptor, such as CHO or HEK-293. Finally, blood or tissue cells, for example human peripheral blood eosinophils, isolated using methods as described by Hansel et al., J. Immunol. Methods, 145, 105–110 (1991), can be utilized in such assays. In particular, the compound of the present invention have activity in binding to the CCR-3 receptor in the aforementioned assays. […] Such a result is indicative of the intrinsic activity of the compounds as modulators of chemokine receptor activity. A general binding protocol is described below.
CCR3-Receptor Binding Protocol
The CCR3 receptor binding test is based on a K562 cell line (leukemia myelogenic blast cells ) transfected with the human chemokine receptor CCR3 (hCCR3-C1). The cell membranes were prepared by disrupting the hCCR3 transfected K562 cells by nitrogen […] and centrifugation at 40000 g, 4° C. for 1 h. The membranes were re-suspended in the SPA incubation buffer (see below) without bovine serum albumin for storage in aliquots at −80° C.
The CCR3 receptor binding assay with the radioligand ^125Jodine-eotaxin-1 was performed in a Scintillation Proximity Assay (SPA) design. Cell membranes of hCCR3 C1 cells were diluted in suitable concentrations (0.5–5 ug protein/well ) in 96 well microtiter plates (1450–401, Wallac).
The test incubation mixture comprising 60 μl of the membrane suspension, 80 μl of the Wheat Germ Agglutinin coated PVT beads (organic scintillator, Amersham Pharmacia biotech) in a concentration of 0.4 mg and 40 μl of radiolabelled ^125J rhEotaxin (Amersham, IM290) were incubated with 20 μl of the test compound (dissolved in DMSO dilutions ) for 2 hours. The SPA incubation buffer contained 25 mM HEPES, 25 mM MgCl2 6×H2O, 1 mM CaCl2 2×H2O and 0.1% bovine serum albumin. Included were controls for specific binding (no displacer added) and non-specific binding by adding unlabelled rhEotaxin (R&D Systems) or a test compound. Bound radioactivity was determined by scintillation counter (Micro Beta “Trilux”, Wallac). Determination of affinity of test compounds (dissociation constant Ki) was calculated by iterative fitting of experimental data using the law of mass action based program “easy sys” (Schittkowski, Num Math 68, 129–142 (1994)).

N=c1c2c(C3CC3)csc2nc2n1CC/C2=C\c1ccccc1Br [Example 305]
melting point: 209 °C | Ki [1]: 0.1 to 1 µM

C(=C1CCN2Cc3ccccc3N=C12)c1ccco1 [Example 115]
melting point: 170 °C | Ki [1]: 1 to 10 µM

Clc1ccc(C=C2CCN3Cc4ccccc4N=C23)c(Cl)c1 [Example 120]
melting point: 187 to 188 °C | Ki [1]: 1 to 10 µM

CN(C)c1ccc(/C=C2\CCN3Cc4ccccc4N=C23)c(Cl)c1 (as salt: HCl) [Example 107]
melting point: > 300 °C

N=c1c2ccsc2nc2n1CCC2=Cc1ccccc1Br [Example 301, 7-(2-Bromobenzylidene)-6,7-dihydro-5H-1-thia-4a,8-diazo-s-indacen-4-ylideneamine]
melting point: 183 to 184 °C | Ki [1]: 0.001 to 0.1 µM

FC(F)(F)Oc1ccccc1C=C1CCN2Cc3ccccc3N=C12 [Example 122]
Ki [1]: 1 to 10 µM

Fc1ccccc1/C=C1\CCN2Cc3ccccc3N=C12 (as salt: HCl) [Example 106]
melting point: 285 °C

CCc1ccccc1C=C1CCN2Cc3ccccc3N=C12 (as salt: hydrochloride) [Example 127, 3-(2-Ethylbenzylidene)-1,2,3,9-tetrahydro-pyrrolo[2,1-b]quinazoline]
melting point: 224 to 225 °C

Cc1oc2nc3n(c(=N)c2c1C)CC/C3=C\c1ccccc1Br [Example 306]
melting point: > 290 °C | Ki [1]: 0.1 to 1 µM

CCc1ccccc1/C=C1\CCn2c1nc1ccccc1c2=N [Example 204]
Ki [1]: 0.1 to 1 µM

COc1ccc(C=C2CCn3c2nc2ccccc2c3=N)cc1 [Example 205]
melting point: 175 to 177 °C | Ki [1]: 1 to 10 µM

Brc1ccccc1C=C1CCN2Cc3ccccc3N=C12 [Example 101, 3-(2-Bromobenzylidene)-1,2,3,9-tetrahydro-pyrrolo[2,1-b]quinazoline]
Ki [1]: 0.001 to 0.1 µM

CCOc1ccccc1/C=C1\CCN2Cc3ccccc3N=C12 [Example 113]
melting point: 157 to 158 °C | Ki [1]: 1 to 10 µM

Fc1ccccc1/C=C1\CCN2Cc3ccccc3N=C12 [Example 106]
Ki [1]: 1 to 10 µM

CCc1ccccc1C=C1CCN2Cc3ccccc3N=C12 (as salt: HCl) [Example 110]
melting point: 257 °C

FC(F)(F)c1ccccc1/C=C1\CCN2Cc3ccccc3N=C12 (as salt: HCl) [Example 108]
melting point: 109 to 110 °C

Clc1ccccc1/C=C1\CCN2Cc3cc(Br)cc(Br)c3N=C12 [Example 102]
melting point: 214 to 219 °C | Ki [1]: 1 to 10 µM

Brc1cccc2cccc(C=C3CCN4Cc5ccccc5N=C34)c12 [Example 124]
melting point: 252 to 255 °C | Ki [1]: 1 to 10 µM

COc1cc2nc3n(c(=N)c2cc1OC)CC/C3=C\c1ccccc1Br [Example 206]
melting point: 192 to 194 °C | Ki [1]: 0.1 to 1 µM

C(=C1/CCN2Cc3ccccc3N=C12)/c1ccccc1-c1ccccc1 (as salt: HCl) [Example 117]
melting point: 255 to 256 °C

Clc1cccc(Cl)c1C=C1CCN2Cc3ccccc3N=C12 [Example 105]
melting point: 198 to 199 °C | Ki [1]: 1 to 10 µM

N=c1c2ccccc2nc2n1CCC2=Cc1ccccc1Br [Example 201, 3-(2-Bromobenzylidene)-9-imino-2,3-dihydro-1H-pyrrolo[2,1-b]quinazoline]
Ki [1]: 0.001 to 0.1 µM

CN(C)c1ccc(/C=C2\CCN3Cc4ccccc4N=C23)cc1 [Example 111]
melting point: 205 °C | Ki [1]: 1 to 10 µM

FC(F)(F)c1ccccc1/C=C1\CCN2Cc3ccccc3N=C12 [Example 108]
Ki [1]: 1 to 10 µM

C(=C1/CCN2Cc3ccccc3N=C12)/c1cccs1 [Example 114]
melting point: 208 to 210 °C | Ki [1]: 1 to 10 µM

CN(C)c1ccc(/C=C2\CCN3Cc4ccccc4N=C23)c(Cl)c1 [Example 107]
Ki [1]: 1 to 10 µM

Clc1ccccc1C=C1CCN2Cc3ccccc3N=C12 [Example 103]
melting point: 190 to 191 °C | Ki [1]: 0.001 to 0.1 µM

C(=C1/CCN2Cc3ccccc3N=C12)/c1ccccc1-c1ccccc1 [Example 117]
Ki [1]: 1 to 10 µM

Fc1ccc(C=C2CCN3Cc4ccccc4N=C23)c(Cl)c1 [Example 118]
melting point: 202 to 203 °C | Ki [1]: 0.1 to 1 µM

CCc1ccccc1C=C1CCN2Cc3ccccc3N=C12 [Example 110]
Ki [1]: 1 to 10 µM

FC(F)(F)Oc1ccccc1C=C1CCN2Cc3ccccc3N=C12 (as salt: HCl) [Example 122]
melting point: 225 °C

Clc1ccc(/C=C2\CCN3Cc4ccccc4N=C23)cc1Cl [Example 112]
melting point: 200 °C | Ki [1]: 0.1 to 1 µM

Cc1sc2nc3n(c(=N)c2c1C)CC/C3=C\c1ccccc1Br [Example 303]
melting point: 180 °C | Ki [1]: 0.1 to 1 µM

C(=C1/CCN2Cc3ccccc3N=C12)/c1ccsc1 [Example 116]
melting point: 208 to 209 °C | Ki [1]: 1 to 10 µM

N=c1c2ccccc2nc2n1CC/C2=C\c1ccccc1Cl [Example 202]
melting point: 202 to 203 °C | Ki [1]: 0.001 to 0.1 µM

Clc1ccccc1C=C1CCCN2Cc3ccccc3N=C12 [Example 126, 6-(2-Chlorobenzylidene)-6,8,9,11-tetrahydro-7H-pyrido[2,1-b]quinazoline]
melting point: 242 to 248 °C | Ki [1]: 1 to 10 µM

N=c1c2cccnc2nc2n1CC/C2=C\c1ccccc1Br [Example 208]
melting point: 232 °C | Ki [1]: 0.1 to 1 µM

N=c1c2ccccc2nc2n1CC/C2=C\c1ccccc1I [Example 203]
Ki [1]: 0.001 to 0.1 µM

COc1ccc(/C=C2\CCN3Cc4ccccc4N=C23)cc1C [Example 119]
melting point: 174 to 175 °C | Ki [1]: 1 to 10 µM

From patent US7214703B2, “Pyrrolidinohydrochinazolines” (Boehringer Ingelheim International GmbH, priority 2003, dated 2007)
